Columns and labels:
[1] = target: T1, Clostridium difficile Toxin B (Clostridioides difficile, UniProt P18177); assay: Toxin B inactivation, CHO-k1 microwell dye reduction assay; type: cell-based; conditions: for Reduction of measured toxin B: at all tested concentrations, toxin B at high level
T1 construct: purchased List Biological Laboratory (Listlab, Campbell, Calif., USA)

[2] = target: Clostridium difficile Toxin B (Clostridium difficile) (UniProt P18177)
[3] = system: crude toxin preparation from E. coli O157; type: cell-based, Escherichia coli O157
[4] = system: crude toxin preparation from B. cerus; type: cell-based, Bacillus cereus
[5] = system: crude toxin preparation from C. perfringens; type: cell-based
[6] = system: crude toxin preparation from C. sordellii; type: cell-based
Shiga toxin 1 = Shiga toxin 1 (UniProt P08026+P69178)
Sequence of Shiga toxin 1 (P08026 23-315 limits assumed): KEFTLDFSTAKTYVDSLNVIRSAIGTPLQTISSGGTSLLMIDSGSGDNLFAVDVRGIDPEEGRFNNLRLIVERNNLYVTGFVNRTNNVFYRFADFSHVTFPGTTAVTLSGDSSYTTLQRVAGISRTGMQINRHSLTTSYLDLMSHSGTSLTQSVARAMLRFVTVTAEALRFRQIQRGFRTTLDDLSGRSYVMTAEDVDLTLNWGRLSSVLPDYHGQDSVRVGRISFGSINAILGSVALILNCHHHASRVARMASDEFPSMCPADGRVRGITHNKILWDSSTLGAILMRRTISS
Sequence of Shiga toxin 1 (P69178 21-89 limits assumed): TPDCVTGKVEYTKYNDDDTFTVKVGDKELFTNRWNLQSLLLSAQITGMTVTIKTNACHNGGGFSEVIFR

Shiga toxin 2 = Shiga toxin 2 (Escherichia phage 933W, UniProt P09385+P09386)
Sequence of Shiga toxin 2 (P09385 23-319 limits assumed): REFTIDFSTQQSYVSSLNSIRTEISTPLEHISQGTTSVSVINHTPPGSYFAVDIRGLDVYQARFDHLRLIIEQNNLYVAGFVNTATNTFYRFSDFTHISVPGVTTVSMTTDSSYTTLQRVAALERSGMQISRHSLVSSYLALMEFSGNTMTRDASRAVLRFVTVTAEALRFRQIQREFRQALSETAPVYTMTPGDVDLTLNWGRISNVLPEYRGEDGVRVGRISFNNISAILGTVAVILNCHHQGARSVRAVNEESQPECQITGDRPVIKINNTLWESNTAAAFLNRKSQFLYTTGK
Sequence of Shiga toxin 2 (P09386 20-89 limits assumed): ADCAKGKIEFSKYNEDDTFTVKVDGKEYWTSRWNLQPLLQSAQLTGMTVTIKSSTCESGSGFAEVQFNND

C. difficile ATCC 9689 [7] = type: cell-based, Clostridium difficile
C. difficile ATCC 9689 [8] = assay: Bacterial mass in wells of PM panels (OD 750 nm); type: cell-based, Clostridium difficile; conditions: OD difference with vs without C. difficile, 72 h; nitrogen source (PM03/06/07/08)
[9] = at the lowest concentration of 0.03 μM, toxin B 1.2-100 ng/ml

T1 sequence (P18177 whole entry): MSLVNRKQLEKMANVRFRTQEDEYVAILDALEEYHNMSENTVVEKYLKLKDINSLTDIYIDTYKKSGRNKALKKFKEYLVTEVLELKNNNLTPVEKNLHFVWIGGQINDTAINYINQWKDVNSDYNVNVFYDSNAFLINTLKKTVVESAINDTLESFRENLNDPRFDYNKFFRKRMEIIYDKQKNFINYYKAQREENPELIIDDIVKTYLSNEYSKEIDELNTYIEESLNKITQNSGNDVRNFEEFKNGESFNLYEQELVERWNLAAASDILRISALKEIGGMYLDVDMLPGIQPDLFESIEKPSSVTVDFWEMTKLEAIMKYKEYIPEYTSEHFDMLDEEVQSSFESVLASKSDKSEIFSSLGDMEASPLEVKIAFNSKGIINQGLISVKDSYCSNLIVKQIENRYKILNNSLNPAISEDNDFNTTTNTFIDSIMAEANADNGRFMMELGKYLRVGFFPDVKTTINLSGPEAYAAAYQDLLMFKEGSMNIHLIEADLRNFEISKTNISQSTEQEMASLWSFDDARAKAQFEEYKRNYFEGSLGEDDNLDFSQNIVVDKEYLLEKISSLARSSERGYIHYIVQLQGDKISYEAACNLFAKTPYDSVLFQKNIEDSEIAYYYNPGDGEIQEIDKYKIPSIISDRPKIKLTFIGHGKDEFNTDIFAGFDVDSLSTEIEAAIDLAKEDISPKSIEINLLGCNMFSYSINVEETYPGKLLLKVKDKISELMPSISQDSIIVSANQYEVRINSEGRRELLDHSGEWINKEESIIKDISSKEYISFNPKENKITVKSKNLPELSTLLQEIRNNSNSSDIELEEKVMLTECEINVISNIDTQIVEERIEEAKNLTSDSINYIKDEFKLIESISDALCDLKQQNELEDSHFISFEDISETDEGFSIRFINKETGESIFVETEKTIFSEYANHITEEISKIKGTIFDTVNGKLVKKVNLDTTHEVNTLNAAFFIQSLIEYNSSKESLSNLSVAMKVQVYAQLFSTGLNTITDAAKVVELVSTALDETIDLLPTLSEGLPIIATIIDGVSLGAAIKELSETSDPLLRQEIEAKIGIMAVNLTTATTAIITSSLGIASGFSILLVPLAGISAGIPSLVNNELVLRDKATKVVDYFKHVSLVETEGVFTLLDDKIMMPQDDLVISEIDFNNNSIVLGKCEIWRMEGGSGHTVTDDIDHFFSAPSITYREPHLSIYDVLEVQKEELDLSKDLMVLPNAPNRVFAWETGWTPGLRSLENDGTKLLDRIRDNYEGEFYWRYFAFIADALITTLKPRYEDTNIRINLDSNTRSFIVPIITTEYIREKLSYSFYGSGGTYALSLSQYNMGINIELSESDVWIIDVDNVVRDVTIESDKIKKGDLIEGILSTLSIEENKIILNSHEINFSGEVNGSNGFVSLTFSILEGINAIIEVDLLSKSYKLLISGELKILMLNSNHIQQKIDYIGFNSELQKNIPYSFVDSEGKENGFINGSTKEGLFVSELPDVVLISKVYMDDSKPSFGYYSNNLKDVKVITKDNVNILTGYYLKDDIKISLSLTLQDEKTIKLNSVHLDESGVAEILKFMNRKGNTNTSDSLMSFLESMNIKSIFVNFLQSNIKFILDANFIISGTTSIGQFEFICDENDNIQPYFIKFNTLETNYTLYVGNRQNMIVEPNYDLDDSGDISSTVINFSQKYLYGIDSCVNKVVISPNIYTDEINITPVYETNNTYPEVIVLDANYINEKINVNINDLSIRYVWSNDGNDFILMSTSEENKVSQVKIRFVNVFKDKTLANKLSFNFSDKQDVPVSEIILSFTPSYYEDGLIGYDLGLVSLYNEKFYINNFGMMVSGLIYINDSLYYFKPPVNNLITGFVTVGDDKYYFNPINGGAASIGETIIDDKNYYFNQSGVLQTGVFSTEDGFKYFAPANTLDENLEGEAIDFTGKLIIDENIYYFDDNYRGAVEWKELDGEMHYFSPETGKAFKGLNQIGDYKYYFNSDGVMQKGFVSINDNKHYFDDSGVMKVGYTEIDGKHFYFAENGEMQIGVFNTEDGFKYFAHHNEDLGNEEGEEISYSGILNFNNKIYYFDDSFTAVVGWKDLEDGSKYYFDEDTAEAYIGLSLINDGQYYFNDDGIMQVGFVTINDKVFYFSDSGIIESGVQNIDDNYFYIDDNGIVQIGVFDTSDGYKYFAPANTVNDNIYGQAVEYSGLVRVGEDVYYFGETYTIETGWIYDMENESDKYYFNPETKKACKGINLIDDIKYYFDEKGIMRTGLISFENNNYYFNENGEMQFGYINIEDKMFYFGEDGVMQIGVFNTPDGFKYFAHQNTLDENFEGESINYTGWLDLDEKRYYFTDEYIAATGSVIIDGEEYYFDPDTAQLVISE

## poly-L-lysine
[1]; 50 ng/ml C. difficile Toxin B
  Toxin B inactivation: effectively inactivates

## poly-D-lysine
[1]; 50 ng/ml C. difficile Toxin B
  Toxin B inactivation: effectively inactivates

## poly-L-lysine (peptide)
[2]
  concentration at which significant toxin inactivation begins: 1 µg/mL

## poly-D-lysine (peptide)
[2]
  concentration at which significant toxin inactivation begins: 1 µg/mL

## polylysine
[1]; 50 ng/ml C. difficile Toxin B, dose response 0.042-42.5 ug/ml
  Concentration at which significant toxin inactivation begins: approximately 1 ug/ml

## protamine
[1]
  Reduction of measured toxin B: dramatically reduce
[1]; [9]
  Toxin B inactivation: completely inactivated
[1]; double dilution experiment, FIG. 4
  Optimal concentration against toxin B: 0.26 µM
[3]
  Toxin inactivation: did not inactivate
[4]
  Toxin inactivation: did not inactivate
[5]
  Toxin inactivation: did not inactivate
[6]
  Toxin inactivation: did not inactivate
Shiga toxin 1
  Toxin inactivation: did not inactivate
Shiga toxin 2
  Toxin inactivation: did not inactivate

## CCCCN [N-Butylamine]
C. difficile ATCC 9689 [7]
  Toxin: 5679 ng/mL
C. difficile ATCC 9689 [8]
  C. difficile Mass: 0.0407 OD (750 nm)

## Arg-Gln
C. difficile ATCC 9689 [7]
  Toxin: 8912 ng/mL
C. difficile ATCC 9689 [8]
  C. difficile Mass: 0.0476 OD (750 nm)

## polyarginine
[1]
  Reduction of measured toxin B: dramatically reduce
[1]; [9]
  Toxin B inactivation: completely inactivated

## Lys-Lys
C. difficile ATCC 9689 [7]
  Toxin: 150 ng/mL
C. difficile ATCC 9689 [8]
  C. difficile Mass: 0.0427 OD (750 nm)

## Arg-Tyr
C. difficile ATCC 9689 [7]
  Toxin: 8819 ng/mL
C. difficile ATCC 9689 [8]
  C. difficile Mass: 0.0455 OD (750 nm)

## Thr-Gln
C. difficile ATCC 9689 [7]
  Toxin: <0.122 ng/mL
C. difficile ATCC 9689 [8]
  C. difficile Mass: 0.0403 OD (750 nm)

## Gly-Gly-Ile
C. difficile ATCC 9689 [7]
  Toxin: <0.122 ng/mL
C. difficile ATCC 9689 [8]
  C. difficile Mass: 0.0421 OD (750 nm)

Source: US9662372B2 (priority 2013, dated 2017)
